Reference: ChEMBL document CHEMBL3407333, “Synthesis and biological evaluation of second-generation tropanol-based androgen receptor modulators” (J Med Chem, 2015)

Columns and labels:
[1] = biological target: T1, Androgen receptor (Homo sapiens, UniProt P10275); assay: Antagonist activity against pSG5-tagged human androgen receptor expressed in COS1 cells assessed as reduction in receptor-mediated transcriptional activity by AR-regulated rat probasin promoter fragment driven firefly luciferase reporter assay; assay type: cell-based, COS-1
T1 sequence (P10275 whole entry): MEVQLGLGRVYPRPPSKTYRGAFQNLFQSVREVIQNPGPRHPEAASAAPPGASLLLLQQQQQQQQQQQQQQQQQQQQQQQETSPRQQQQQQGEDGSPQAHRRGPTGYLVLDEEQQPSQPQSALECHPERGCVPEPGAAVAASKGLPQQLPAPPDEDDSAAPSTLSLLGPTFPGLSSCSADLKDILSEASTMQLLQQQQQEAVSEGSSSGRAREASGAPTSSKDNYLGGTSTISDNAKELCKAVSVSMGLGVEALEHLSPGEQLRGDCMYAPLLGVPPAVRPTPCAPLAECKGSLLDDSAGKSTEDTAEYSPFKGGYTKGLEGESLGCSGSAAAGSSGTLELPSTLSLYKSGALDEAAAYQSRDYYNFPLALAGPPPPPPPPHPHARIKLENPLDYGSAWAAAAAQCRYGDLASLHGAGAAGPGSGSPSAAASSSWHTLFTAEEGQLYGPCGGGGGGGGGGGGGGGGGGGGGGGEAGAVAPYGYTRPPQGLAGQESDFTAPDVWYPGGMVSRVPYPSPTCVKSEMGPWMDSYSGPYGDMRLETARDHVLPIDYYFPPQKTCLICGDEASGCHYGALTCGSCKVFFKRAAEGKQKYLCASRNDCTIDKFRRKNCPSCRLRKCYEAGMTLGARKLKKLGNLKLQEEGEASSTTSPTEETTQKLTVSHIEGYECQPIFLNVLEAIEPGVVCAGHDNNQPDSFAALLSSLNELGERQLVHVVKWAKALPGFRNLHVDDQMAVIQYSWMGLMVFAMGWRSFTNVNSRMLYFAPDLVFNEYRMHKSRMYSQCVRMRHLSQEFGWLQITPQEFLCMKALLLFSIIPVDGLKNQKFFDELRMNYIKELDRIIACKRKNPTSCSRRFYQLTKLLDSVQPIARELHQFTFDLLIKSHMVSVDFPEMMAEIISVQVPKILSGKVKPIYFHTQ

[2] = biological target: T1, Androgen receptor; assay: Displacement of [3H]R1881 from pSG5-tagged human androgen receptor expressed in COS1 cells assessed as relative binding inhibition; assay type: cell-based, COS-1

| SMILES | IC50 [1] [µM] | IC50 [2] [µM] |
| --- | --- | --- |
| N#Cc1ccc(N2[C@H]3CC[C@H]2CC(O)C3)cc1C(F)(F)F (relative stereo) | 0.0398 | 0.0398 |
| N#Cc1ccc(N2[C@H]3CC[C@H]2CC(NCc2ccccc2)C3)cc1C(F)(F)F (relative stereo) | 0.233 | 0.233 |
| CC1(O)C[C@@H]2CC[C@@H](C1)N2c1ccc(C#N)c(C(F)(F)F)c1 (relative stereo) | 0.0293 | 0.0293 |
| CCS(=O)(=O)NC1C[C@@H]2CC[C@@H](C1)N2c1ccc(C#N)c(C(F)(F)F)c1 (relative stereo) | 2.04 | 2.04 |
| Cc1c(N2C3CCC2CC(C)(O)C3)ccc(C#N)c1Cl (stereo unspecified) | 0.00211 | 0.00211 |
| N#Cc1ccc(N2[C@@H]3CC[C@H]2C[C@@H](O)C3)cc1Cl | 0.0317 | 0.0317 |
| N#Cc1ccc(N2C3CCC2CC(=O)C3)cc1C(F)(F)F | 0.066 | 0.066 |
| CS(=O)(=O)NC1C[C@@H]2CC[C@@H](C1)N2c1ccc(C#N)c(C(F)(F)F)c1 (relative stereo) | 2.65 | 2.65 |
